Assay results taken from patent publication US9255258B2 (priority 2009, dated 2016).
Like-named read-outs stand apart in the source and are kept apart here.

Key:
[1] = biological target: Phi29 (exo-) (D169A mutant) (Bacillus phage phi29, UniProt P03680, D169A)
Procedure: Base Reading Mix: 50 mM Tris (pH 7.5), 50 mM NaCl, 5 mM CaCl2, 0.2% BSA, 80 μg/mL glucose oxidase; 2000 U/mL Katalase; 1 mM Trolox; 0.5% glucose; 250 nM Phi29 (exo-) (D169A mutant), 500 nM non-hydrolyzable nucleotide (AF647-C6 alkyl linker-alpha-thio-dA4P nucleotide analog, labeled at the terminal phosphate with ALEXA FLUOR 647).
Commercial nanoparticles (605 ITK SAV quantum dots, Invitrogen, catalog # Q10001MP) were immobilized onto PEG/PEG-biotin coverslip surfaces at 5 pM for 4 minutes. The surface-immobilized nanoparticles were saturated with hairpin molecules via the biotin in the loop.
All the transient-binding and extension steps as well as the protocols and the imaging conditions were identical to the ones described in Example 8 above (6-Base Extension, 2-Color Sequencing, in the Presence of Calcium). In this experiment only one non-hydrolyzable-AF647-dA4P were used in all transient-binding steps.
The transient-binding reaction steps, using labeled non-hydrolyzable nucleotides steps, were conducted at room temperature and included: • 1.

Klenow (exo-) = Klenow (exo-) (Escherichia coli, UniProt P00582, D355A/E357A); conditions: P2-1 primer (template nucleotide A); 200 nM each of four base-labeled nucleotides, 250 nM Klenow (exo-), 10 mM CaCl2
Procedure: The following procedure was conducted using a SOLID sequencing instrument (SOLiD 0025) (Applied Biosystems, Foster City, Calif.), and template/primer duplexes immobilized on SOLiD S3 clonal beads, SOLiD flowcells, and Klenow polymerase.
Seven μM of the P2 primer, in 1×SSPE (150 mM NaCl, 10 mM sodium phosphate, 1 mM EDTA), was added to a SOLiD flowcell containing beads/template immobilized on a glass slide, at 25° C., then hybridized at 75° C. for 1 minute, 70° C. for 2 minutes, 65° C. for 2 minutes, 60° C. for 2 minutes, and washed with 1× Instrumentation Buffer (AB Part No. 4389784).
The labeled nucleotides were obtained from PerkinElmer Life and Analytical Science (Boston, Mass.): Cy5-dUTP, Cy3-dCTP, FAM-dGTP, and Texas Red (TxR)-dATP (base-labeled nucleotides). The Klenow fragment polymerase was obtained from New England Biolabs (No. M0212L, Ipswich, Mass.).
The beads were washed with 3 mL of Universal Buffer (50 mM NaCl, 10 mM Tris-HCl (pH 8), 10 mM CaCl2, 2 mM DTT). And 0.2 mL of Sensing Buffer Mix (200 nM each of Cy5-dUTP, Cy3-dCTP, Fam-dGTP, and Texas Red-dATP; 250 nM Klenow (exo-) in the Universal Buffer) was injected into the flowcell and incubated for 5 minutes at room temperature. […]

Row | Substance | signal from transiently-bound nucleotide ([1]; Base Reading Mix containing 5 mM MnCl2 (instead of CaCl2), correct nucleotide, 500 nM) | signal from transiently-bound nucleotide ([1]; after addition of CaCl2 (approximated 5-10 mM) to the manganese reaction, without washing) | bead fluorescence after wash (Klenow (exo-))
1 | AF647-C6 alkyl linker-alpha-thio-dA4P nucleotide analog [alpha-thio-dA4P-AF647] | no detectable signal | detectable immediately upon addition of the calcium | –
2 | Cy5-dUTP | – | – | fluoresce to a greater degree than the other dye-labeled nucleotides
